Literature values as cited in US20240342250A1, “COMPOSITION AND METHODS OF TREATMENT USING […]-ENHANCED SUPPLEMENTATION” (Xygenyx Inc., priority 2023, published 2024).
Non-standard residues stand in square brackets, D forms with d. Residues, ends and D or L forms follow the SMILES beside them. Cit = NC(=O)NCCC[C@H](N)C(=O)O

What was measured:
[1] = test system: systemic inflammation, oxidative status, and liver cell metabolism associated with rheumatoid arthritis; conditions: arthritic subjects
skin [2] = conditions: topical formulations; within four weeks of treatment
[3] = compared to alpha-tocopherol = 1.0
[4] = test system: markers of inflammation in the blood; conditions: individuals with metabolic syndrome
[5] = generally considered safe and well-tolerated at doses of up to
[6] = test system: memory recall and cognitive function; conditions: compared to placebo; 34 pairs of matched adolescent students
[7] = even when dietary intake occurs in equal portions
[8] = test system: wide dynamic range neurons in the ventroposterolateral nucleus of the thalamus; conditions: is believed
symptoms of depression = conditions: patients who did not respond to traditional antidepressant medications
[9] = in vivo
skin [10] = conditions: topical, concentrations 0.5-5%
skin [11] = test system: skin

## C=C1CC/C=C(\C)CC[C@@H]2[C@@H]1CC2(C)C [β-caryophyllene]
[1]
  protein carbonyl groups and myeloperoxidase activity in liver and plasma: eliminated increases of protein carbonyl groups and myeloperoxidase activity
  swelling of joints and lymph nodes, circulating and articular leukocytes: reduced swelling of joints and lymph nodes as well as the number of circulating and articular leukocytes

## CC[C@H](C)[C@H](NC(=O)[C@H](CC(=O)O)NC(=O)[C@@H](N)CCCCN)C(=O)N[C@@H](CCCNC(N)=O)C(N)=O [Tripeptide-10 citrulline] (H-KDI[Cit]-NH2)
Skin [2]
  improvement of suppleness: ≤ 54%

## Cc1c(C)c2c(c(C)c1O)CC[C@@](C)(CCC[C@H](C)CCC[C@H](C)CCCC(C)C)O2 [α-tocopherol]
400-500 IU in combination with 10-20 mg beta-carotene and 400-500 mg vitamin C
  progression of age-related macular degeneration: dramatically reduce the progression of age-related macular degeneration
800-900 IU/day
  functional health of sperm: improve functional health of sperm
1600-3200 IU/day
  blood plasma concentration of F2-isoprostane: significantly lower blood plasma concentration of F2-isoprostane
Dietary supplementation, doses up to 400 IU/day
  reduction of risk of coronary disease: up to 34%
Dietary supplementation, doses up to 400 IU/day, controlled trials
  reduction of risk of developing neurodegenerative diseases such as Alzheimer's Syndrome or dementia: ≤ 24%
In combination with 10-20 mg beta-carotene and 400-500 mg vitamin C
  reduction in the development of age-related cataracts: 23%

## Cc1cc(O)cc2c1O[C@](C)(CCC[C@H](C)CCC[C@H](C)CCCC(C)C)CC2 [δ-tocopherol]
[3]
  relative biological activity: 0.03
[4]
  markers of inflammation in the blood: reduced markers of inflammation in the blood

## CCNC(=O)CC[C@H](N)C(=O)O [Theanine]
[5]
  safe and well-tolerated dose: up to 400 mg per day

## C/C=C1\[C@H]2C=C(C)C[C@]1(N)c1ccc(=O)[nH]c1C2 [Huperzine A]
[6]
  memory recall and cognitive function: significant improvements in memory recall and cognitive function

## Cc1c(O)cc2c(c1C)O[C@](C)(CCC[C@H](C)CCC[C@H](C)CCCC(C)C)CC2 [γ-tocopherol]
[3]
  relative biological activity: 0.1
[7]
  concentration in vivo relative to alpha-tocopherol: roughly 10%

## CCCCCc1cc(O)c2c(c1)OC(C)(C)C1CCC(C)=CC21 (stereo not shown) [THC, Δ-9-tetrahydrocannabinol]
[8]
  potency in mediating pain relative to morphine: ten times more powerful than morphine

## CN1c2c([nH]c(N)nc2=O)NCC1CNc1ccc(C(=O)N[C@@H](CCC(=O)O)C(=O)O)cc1 (stereo partly shown) [5-MTHF, 5-methyltetrahydrofolate]
Symptoms of depression
  symptoms of depression: improved symptoms of depression

## HGH: hormone comprising a peptide chain that is synthesized in the pituitary gland
[9]
  biological half-life: 10-20 minutes

## C=CCCCCCCCCC(=O)N[C@@H](Cc1ccccc1)C(=O)O [UP, Undecylenoyl phenylalanine]
Skin [10]
  time to skin lightening effects: ≥ 7 days

## CC(C)[C@@H]1CC[C@@H](C)C[C@H]1O [Menthol]
Skin [11]
  increase of transdermal drug uptake, factor: ≥ 10

## CC12CCC(CC1)C(C)(C)O2 [eucalyptol, Eucalyptol]
Skin [11]
  increase of transdermal drug uptake, factor: more than 10

## Cc1cc(O)c(C)c2c1O[C@](C)(CCC[C@H](C)CCC[C@H](C)CCCC(C)C)CC2 [β-tocopherol]
[3]
  relative biological activity: 0.5
